# In patent US20120328569A1, “INHIBITORS OF HEPATITIS C VIRUS NS5B POLYMERASE” (priority 2010, published 2012):
# Tested on: HCV genotype 1b replicon
# Assay: HCV replicon assay, cell ELISA with antibody to replicon-encoded NS3/4A (genotype 1b replicon)
# Format: cell-based, hepatitis C virus
# Conditions: Hepatitis C virus, 96 h, read-out: Replicon 1b IC50 (nM), HCV genotype 1b replicon cells, 96 hours incubation, NS3/4A ELISA readout
# Method: The HCV NS5B inhibitory activity of the present compounds may be tested using assays known in the art. The HCV NS5B polymerase inhibitors described herein have activities in a genotype 1b replicon assay as described in the Examples. The assay is performed by incubating a replicon harboring cell-line in the presence of inhibitor for a set period of time and measuring the effect of the inhibitor on HCV replicon replication either directly by quantifying replicon RNA level, or indirectly by measuring enzymatic activity of a co-encoded reporter enzyme such as luciferase or β-lactamase. By performing a series of such measurements at different inhibitor concentrations, the effective inhibitory concentration of the inhibitor (EC50 or EC90) is determined. See Jan M. Vrolijk et al., A replicons-based bioassay for the measurement of interferons in patients with chronic hepatitis C, 110 J. VIROLOGICAL METHODS 201 (2003). Such assays may also be run in an automated format for high through-put screening. See Paul Zuck et al., A cell-based β-lactamase reporter gene assay for the identification of inhibitors of hepatitis C virus replication, 334 ANALYTICAL BIOCHEMISTRY 344 (2004).
# Measurement of inhibition by compounds was performed using the HCV replicon system. Several different replicons encoding different HCV genotypes or mutations were used. In addition, potency measurements were made using different formats of the replicon assay, including different ways of measurements and different plating formats. See Jan M. Vrolijk et al., A replicons-based bioassay for the measurement of interferons in patients with chronic hepatitis C, 110 J. VIROLOGICAL METHODS 201 (2003); Steven S. Carroll et al., Inhibition of Hepatitis C Virus RNA Replication by 2′-Modified Nucleoside Analogs, 278(14) J. BIOLOGICAL CHEMISTRY 11979 (2003). However, the underlying principles are common to all of these determinations, and are outlined below.
# Stable neomycin phosphotransferase encoding replicons-harboring cell lines were used, so all cell lines were maintained under G418 selection prior to the assay. Potency was determined using a cell ELISA assay with an antibody to the replicons encoded NS3/4a protease. See Caterina Trozzi et al., In Vitro Selection and Characterization of Hepatitis C Virus Serine Protease Variants Resistant to an Active-Site Peptide Inhibitor, 77(6) J. Virol. 3669 (2003). To initiate an assay, replicon cells were plated in the presence of a dilution series of test compound in the absence of G418. Typically, the assays were performed in a 96-well plate formate for manual operation, or a 384-well plate format for automated assay. Replicon cells and compound were incubated for 96 hours. At the end of the assay, cells were washed free of media and compound, and the cells were then lysed. RNA was quantified indirectly through detection of replicon-encoded NS3/4A protein levels, through an ELISA-based assay with an antibody specific for NS3/4A. IC50 determinations were calculated as a percentage of a DMSO control by fitting the data to a four-parameter fit function and the data obtained is provided in the table below.
row,SMILES,IC50 [nM]
1,"CCOC(=O)CN(c1cc2oc(-c3ccc(F)cc3)c(C(=O)NC)c2cc1-c1ccccc1)S(C)(=O)=O [Example 41, ethyl N-[2-(4-fluorophenyl)-3-(methylcarbamoyl)-5-phenyl-1-benzofuran-6-yl]-N-(methylsulfonyl) glycinate]",> 2000
2,"CCOC(=O)CCCN(c1cc2oc(-c3ccc(F)cc3)c(C(=O)NC)c2cc1-c1ccccc1)S(C)(=O)=O [Example 42, ethyl 4-{[2-(4-fluorophenyl)-3-(methylcarbamoyl)-5-phenyl-1-benzofuran-6-yl](methylsulfonyl)amino}butanoate]",60
3,"CNC(=O)c1c(-c2ccc(F)cc2)oc2cc(N(Cc3cccc(F)c3)S(C)(=O)=O)c(-c3ccccc3)cc12 [Example 53, 6-[(3-fluorobenzyl)(methyl-sulfonyl)amino]-2-(4-fluorophenyl)-N-methyl-5-phenyl-1-benzofuran-3-carboxamide]",373
4,"CNC(=O)c1c(-c2ccc(F)cc2)oc2cc(NC(C)c3ccccc3)c(-c3ccccc3)cc12 (stereo not drawn) [Example 69, 2-(4-fluorophenyl)-N-methyl-5-phenyl-6-[(1-phenylethyl)amino]-1-benzofuran-3-carboxamide]",> 3000
5,"CNC(=O)c1c(-c2ccc(F)cc2)oc2cc(NCCN(C)c3ccccc3)c(-c3ccccc3)cc12 [Example 70, 2-(4-fluorophenyl)-N-methyl-6-({2-[methyl(phenyl)amino]ethyl}amino)-5-phenyl-1-benzofuran-3-carboxamide]",329
6,"CNC(=O)c1c(-c2ccc(F)cc2)oc2cc(N(C)C(C)c3ccccc3)c(-c3ccccc3)cc12 (stereo not drawn) [Example 71, 2-(4-fluorophenyl)-N-methyl-6-[methyl(1-phenylethyl)amino]-5-phenyl-1-benzofuran-3-carboxamide]",> 2500
7,"CCOC(=O)N(CCN(C)c1ccccc1)c1cc2oc(-c3ccc(F)cc3)c(C(=O)NC)c2cc1-c1ccccc1 [Example 72, ethyl[2-(4-fluorophenyl)-3-(methylcarbamoyl)-5-phenyl-1-benzofuran-6-yl]{2-[methyl(phenyl)amino]ethyl}carbamate]",2670
8,CNC(=O)c1c(-c2ccc(F)cc2)oc2cc(NC(=O)CN(C)c3ccccc3)c(-c3ccccc3)cc12 [Example 73],143
9,"CNC(=O)c1c(-c2ccc(F)cc2)oc2cc(N(C)C(=O)CN(C)c3ccccc3)c(-c3ccccc3)cc12 [Example 74, 2-(4-fluorophenyl)-N-methyl-6-[methyl(N-methyl-N-phenylglycyl)amino]-5-phenyl-1-benzofuran-3-carboxamide]",395
10,"CNC(=O)c1c(-c2ccc(F)cc2)oc2cc(N3C(=O)O[C@H](c4ccccc4)[C@@H]3C)c(-c3ccccc3)cc12 [Example 77, 2-(4-fluorophenyl)-N-methyl-6-[(4S,5R)-4-methyl-2-oxo-5-phenyl-1,3-oxazolidin-3-yl]-5-phenyl-1-benzofuran-3-carboxamide]",101
11,"CNC(=O)c1c(-c2ccc(F)cc2)oc2cc(N(C)S(C)(=O)=O)c(-c3ccccc3F)cc12 [Example 78, 5-(2-fluorophenyl)-2-(4-fluorophenyl)-N-methyl-6-[methyl(methylsulfonyl)amino]-1-benzofuran-3-carboxamide]",215
12,"CNC(=O)c1c(-c2ccc(F)cc2)oc2cc(N(C)S(C)(=O)=O)c(-c3ccccc3OC)cc12 [Example 79, 2-(4-fluorophenyl)-5-(2-methoxyphenyl)-N-methyl-6-[methyl (methylsulfonyl)amino]-1-benzofuran-3-carboxamide]",320
13,"CNC(=O)c1c(-c2ccc(F)cc2)oc2cc(N(C)S(C)(=O)=O)c(-c3ccccc3C)cc12 [Example 80, 2-(4-fluorophenyl)-N-methyl-6-[methyl (methylsulfonyl)amino]-5-(2-methylphenyl)-1-benzofuran-3-carboxamide]",241
14,"CNC(=O)c1c(-c2ccc(F)cc2)oc2cc(N(C)S(C)(=O)=O)c(-c3cccc(C)c3)cc12 [Example 81, 2-(4-fluorophenyl)-N-methyl-6-[methyl (methylsulfonyl)amino]-5-(3-methylphenyl)-1-benzofuran-3-carboxamide]",117
15,"CNC(=O)c1c(-c2ccc(F)cc2)oc2cc(N(C)S(C)(=O)=O)c(-c3ccc(C)cc3)cc12 [Example 82, 2-(4-fluorophenyl)-N-methyl-6-[methyl (methylsulfonyl)amino]-5-(4-methylphenyl)-1-benzofuran-3-carboxamide]",53
16,"CNC(=O)c1c(-c2ccc(F)cc2)oc2cc(N(C)S(C)(=O)=O)c(-c3ccccc3N(C)S(C)(=O)=O)cc12 [Example 83, 2-(4-fluorophenyl)-N-methyl-6-[methyl (methylsulfonyl)amino]-5-{2-[methyl (methylsulfonyl)amino]phenyl}-1-benzofuran-3-carboxamide]",232
17,"CNC(=O)c1c(-c2ccc(F)cc2)oc2cc(N(C)S(C)(=O)=O)c(-c3cccc(C#N)c3)cc12 [Example 84, 5-(3-cyanophenyl)-2-(4-fluorophenyl)-N-methyl-6-[methyl (methylsulfonyl)amino]-1-benzofuran-3-carboxamide]",107
18,"CNC(=O)c1c(-c2ccc(F)cc2)oc2cc(N(C)S(C)(=O)=O)c(-c3ccc(C#N)cc3)cc12 [Example 85, 5-(4-cyanophenyl)-2-(4-fluorophenyl)-N-methyl-6-[methyl (methylsulfonyl)amino]-1-benzofuran-3-carboxamide]",43
19,"CNC(=O)c1c(-c2ccc(F)cc2)oc2cc(N(C)S(C)(=O)=O)c(-c3cccc(F)c3)cc12 [Example 86, 5-(3-fluorophenyl)-2-(4-fluorophenyl)-N-methyl-6-[methyl (methylsulfonyl)amino]-1-benzofuran-3-carboxamide]",28
20,"CNC(=O)c1c(-c2ccc(F)cc2)oc2cc(N(C)S(C)(=O)=O)c(-c3ccc(F)cc3)cc12 [Example 87, 2,5-bis(4-fluorophenyl)-N-methyl-6-[methyl (methylsulfonyl)amino]-1-benzofuran-3-carboxamide]",39
21,"CNC(=O)c1c(-c2ccc(F)cc2)oc2cc(N(C)S(C)(=O)=O)c(-c3cccc(OC)c3)cc12 [Example 88, 2-(4-fluorophenyl)-5-(3-methoxyphenyl)-N-methyl-6-[methyl (methylsulfonyl)amino]-1-benzofuran-3-carboxamide]",52
22,"CNC(=O)c1c(-c2ccc(F)cc2)oc2cc(N(C)S(C)(=O)=O)c(-c3ccc(OC)cc3)cc12 [Example 89, 2-(4-fluorophenyl)-5-(4-methoxyphenyl)-N-methyl-6-[methyl (methylsulfonyl)amino]-1-benzofuran-3-carboxamide]",23
23,"CONC(=O)c1c(-c2ccc(F)cc2)oc2cc(N(C)S(C)(=O)=O)c(-c3ccccc3F)cc12 [Example 90, 5(2-fluorophenyl)-2-(4-fluorophenyl)-N-methoxy-6-[methyl(methylsulfonyl)amino]-1-benzofuran-3-carboxamide]",197
24,"CONC(=O)c1c(-c2ccc(F)cc2)oc2cc(N(C)S(C)(=O)=O)c(-c3ccccc3OC)cc12 [Example 91, 2-(4-fluorophenyl)-N-methoxy-5-(2-methoxyphenyl)-6-[methyl (methylsulfonyl)amino]-1-benzofuran-3-carboxamide]",342
